Source: article PMC9986876, “Prediction of Antileishmanial Compounds: General Model, Preparation, and Evaluation of 2-Acylpyrrole Derivatives” (Journal of Chemical Information and Modeling, 2022)

Legend:
L. major promastigotes = settings: in vitro; cited from earlier work
[1] = system: L. amazonensis (MHOM/Br/79/Maria) promastigotes; assay: In vitro promastigote susceptibility assay (resazurin); format: cell-based; settings: for SI (selectivity index, SI = CC50/IC50): CC50 J774 / IC50 L. amazonensis promastigotes; for IC50: Leishmania amazonensis; for IC50 / IC50 ± SD: L. amazonensis promastigotes, 48 h at 26 °C, triplicate, N/A = not active at 100 μg/mL
Method: (§1) The following species of Leishmania were used: L. donovani (MHOM/IN/80/DD8) was purchased (ATCC, USA) and L. amazonensis (MHOM/Br/79/Maria) was kindly provided by Prof. Alfredo Toraño (Instituto de Salud Carlos III, Madrid). Promastigotes were cultured in Schneider’s insect medium supplemented with 10% heat-inactivated fetal bovine serum (FBS) and 1000 U/L of penicillin plus 100 mg/L of streptomycin in 25 mL culture flasks at 26 °C. […] New samples of the compounds have been prepared according to the protocol described above, and subsequently solutions of the chemical compound to be assayed have been dissolved in DMSO at 50 mg/mL. […] Growth control and signal-to-noise control were also included. The final solvent (DMSO) concentrations never exceeded 0.5% (v/v) warranting no effect on parasite proliferation or morphology. After 48 h at 26 °C, 20 μL of a 2.5 mM resazurin solution was added to each well and the plates were returned to the incubator for another 3 h. […] Growth inhibition (%) was calculated by 100 – [(RFU treated wells – RFU signal-to-noise)/(RFU untreated – RFU signal-to-noise) × 100]. All tests were carried out in triplicate. Miltefosine (Sigma-Merck, Madrid, Spain) was used as the reference drug and was evaluated under the same conditions. […] The selectivity index (SI) was calculated as the ratio between cytotoxicity (CC50) and activity against parasites (IC50).

[2] = system: L. donovani (MHOM/IN/80/DD8) promastigotes; assay: as above; format: cell-based; settings: for IC50: Leishmania donovani, L. donovani promastigotes, 48 h at 26 °C, triplicate, N/A = not active at 100 μg/mL; for SI (selectivity index, SI = CC50/IC50): CC50 J774 / IC50 L. donovani promastigotes
Method: as §1

[3] = Cytotoxicity assay on macrophages (resazurin); format: cell-based, BALB/c mice; settings: mouse, J774 macrophages, values marked e correspond to 100 μg/mL, the higher dose tested
Method: The assay was carried out as previously described.[30] J774 macrophages cell lines were seeded (5 × 10^4 cells/well) in 96-well flat-bottom microplates with 100 μL of RPMI 1640 medium. The cells were allowed to attach for 24 h at 37 °C and 5% CO2, and the medium was replaced by different concentrations of the compounds in 200 μL of medium and exposed for another 24 h. Growth controls and signal-to-noise were also included. Afterward, a volume of 20 μL of 2.5 mM resazurin solution was added, and plates were returned to the incubator for another 3 h to evaluate cell viability. The reduction of resazurin was determined by fluorometry as in the promastigote assay. Each concentration was assayed three times.

[4] = system: L. amazonensis amastigotes; assay: In vitro intracellular amastigote susceptibility assay in J774 macrophages; format: cell-based; settings: Leishmania amazonensis; L. amazonensis intracellular amastigotes in J774, 48 h; N/A = not active at 100 μg/mL
Method: The following species of Leishmania were used: L. donovani (MHOM/IN/80/DD8) was purchased (ATCC, USA) and L. amazonensis (MHOM/Br/79/Maria) was kindly provided by Prof. Alfredo Toraño (Instituto de Salud Carlos III, Madrid). Promastigotes were cultured in Schneider’s insect medium supplemented with 10% heat-inactivated fetal bovine serum (FBS) and 1000 U/L of penicillin plus 100 mg/L of streptomycin in 25 mL culture flasks at 26 °C. The assay was carried out as previously described.[29] Briefly, 5 × 10^4 J774 macrophages and stationary promastigotes in a 1:5 ratio were seeded in each well of a microtiter plate, suspended in 200 μL of culture medium, and incubated for 24 h at 33 °C in a 5% CO2 chamber. After this first incubation, the temperature was increased up to 37 °C for another 24 h. Thereafter, cells were washed several times in culture medium by centrifugation at 1.500g for 5 min in order to remove free non-internalized promastigotes. Finally, the supernatant was replaced by 200 μL/well of culture medium containing 2-fold serial dilutions of the test compounds as in promastigotes assay. Growth control and signal-to-noise were also included. Following incubation for 48 h at 37 °C and 5% CO2, the culture medium was replaced by 200 μL/well of the lysis solution (RPMI-1640 with 0.048% HEPES and 0.01% SDS) and incubated at room temperature for 20 min. Thereafter, the plates were centrifuged at 3.500g for 5 min and the lysis solution was replaced by 200 μL/well of Schneider’s insect medium. The culture plates were then incubated at 26 °C for another 4 days to allow transformation of viable amastigotes into promastigotes and proliferation. Afterward, 20 μL/well of 2.5 mM resazurin was added and incubated for another 3 h. Finally, fluorescence emission was measured and IC50 was estimated as described above. All tests were carried out in triplicate. Miltefosine (Sigma-Merck, Madrid, Spain) was used as the reference drug and was evaluated under the same conditions. The IC50 and SI were calculated as in the previous section.

[5] = macrophages J774, 24 h exposure, Table 2

Row | SMILES | IC50 (L. major promastigotes) [µM] | SI (selectivity index, SI = CC50/IC50) [1] | IC50 [1] | IC50 [2] | CC50 at 24 h [3, 5] [µM] | SI (selectivity index, SI = CC50/IC50) [2] | IC50 ± SD [1] | IC50 [4] [µM] | CC50 at 24 h ([3]; macrophages J774, Table 3 (amastigote assay table)) [µM]
1 | Cc1ccc2ncc(/C=C/C(=O)c3cc[nH]c3)cc2c1 [4a] | 1.29 |  |  |  |  |  |  |  | 
2 | COc1ccc2ncc(/C=C/C(=O)c3cc[nH]c3)cc2c1 [4b] | 1.18 |  |  |  |  |  |  |  | 
3 | O=C(c1ccccc1)c1cccn1-c1ncccn1 [5aa] |  | >1.55 | 260 ± 40.7 µM | > 100 µg/mL | > 401 |  |  |  | 
4 | Cc1ccc(C(=O)c2cccn2-c2ncccn2)cc1 [5ab] |  |  | > 100 µg/mL | > 100 µg/mL | > 381 |  |  |  | 
5 | CC(C)(C)c1ccc(C(=O)c2cccn2-c2ncccn2)cc1 [5ac] |  | >2.77 | 32.9 ± 0.74 µM | 58.5 ± 7.04 µM | 91 ± 6.55 | >1.55 |  |  | 
6 | O=C(c1ccc(F)cc1)c1cccn1-c1ncccn1 [5ad] |  |  | > 100 µg/mL | > 100 µg/mL | 270 ± 26.3 |  | inactive |  | 
7 | O=C(c1ccc(Cl)cc1)c1cccn1-c1ncccn1 [5ae] |  | >3.01 | 117 ± 10.9 µM | 190 ± 6.76 µM | > 352 | >1.86 |  |  | 
8 | N#Cc1ccc(C(=O)c2cccn2-c2ncccn2)cc1 [5ag] |  |  | > 100 µg/mL | > 100 µg/mL | > 365 |  |  |  | 
9 | O=C(c1ccc([N+](=O)[O-])cc1)c1cccn1-c1ncccn1 [5ah] |  |  | > 100 µg/mL | > 100 µg/mL | > 340 |  |  |  | 
10 | O=C(c1ccc(C(F)(F)F)cc1)c1cccn1-c1ncccn1 [5ai] |  | >3.13 | 48 ± 1.61 µM | 42.8 ± 0.61 µM | 150 ± 49.4 | >3.51 |  |  | 
11 | COc1cc(OC)cc(C(=O)c2cccn2-c2ncccn2)c1 [5aj] |  | >2.71 | 32.5 ± 0.64 µM | 211 ± 32.8 µM | 88.3 ± 3.36 | >0.42 |  |  | 
12 | COc1cc(C(=O)c2cccn2-c2ncccn2)cc(OC)c1OC [5ak] |  |  | > 100 µg/mL | > 100 µg/mL | 87.3 ± 7.37 |  | inactive |  | 
13 | COc1ccc(C(=O)c2cccn2-c2ncccn2)c(OC)c1 [5al] |  |  | > 100 µg/mL | > 100 µg/mL | 224 ± 46.9 |  |  |  | 
14 | O=C(c1cc(C(F)(F)F)cc(C(F)(F)F)c1)c1cccn1-c1ncccn1 [5am] |  | >4.53 | 57.34 ± 0.25 µM | 199 ± 25.4 µM | > 260 | >1.31 |  |  | 
15 | O=C(c1ccc2ccccc2c1)c1cccn1-c1ncccn1 [5an] |  | >3.12 | 36.1 ± 1.23 µM | 58.5 ± 3.34 µM | 113 ± 39.2 | >1.93 |  |  | 
16 | Cc1cccnc1-n1cccc1C(=O)c1ccccc1 [5ba] |  | >2.50 | 153 ± 21.6 µM | > 100 µg/mL | > 381 |  |  |  | 

Row | SMILES | IC50 (L. major promastigotes) [µM] | SI (selectivity index, SI = CC50/IC50) [1] | IC50 [1] | IC50 [2] | CC50 at 24 h [3, 5] [µM] | SI (selectivity index, SI = CC50/IC50) [2] | IC50 ± SD [1] | IC50 [4] [µM] | CC50 at 24 h ([3]; macrophages J774, Table 3 (amastigote assay table)) [µM]
17 | Cc1ccc(C(=O)c2cccn2-c2ncccc2C)cc1 [5bb] |  | >2.43 | 149 ± 3.84 µM | 120 ± 15 µM | > 362 | >3.02 |  |  | 
18 | Cc1cccnc1-n1cccc1C(=O)c1ccc(F)cc1 [5bd] |  |  | 16.9 ± 0.73 µM | 7.78 ± 0.27 µM | 137 ± 36.4 | >23.15 |  |  | 
19 | Cc1cccnc1-n1cccc1C(=O)c1ccc(Cl)cc1 [5be] |  | >2.89 | 51.5 ± 4.72 µM | 20.7 ± 0.98 µM | 149 ± 19.3 | >7.19 |  |  | 
20 | Cc1cccnc1-n1cccc1C(=O)c1ccc(Br)cc1 [5bf] |  | >3.14 | 38.1 ± 0.85 µM | 19.9 ± 1.47 µM | 120 ± 37.4 | >6.01 |  |  | 
21 | Cc1cccnc1-n1cccc1C(=O)c1ccc(C#N)cc1 [5bg] |  | >1.81 | 192 ± 12 µM | 315 ± 60.8 µM | > 348 | >1.10 |  |  | 
22 | COc1cc(OC)cc(C(=O)c2cccn2-c2ncccc2C)c1 [5bj] |  | >1.53 | 71.1 ± 7.81 µM | 43.5 ± 0.59 µM | 108 ± 5.76 |  |  |  | 
23 | COc1cc(C(=O)c2cccn2-c2ncccc2C)cc(OC)c1OC [5bk] |  |  | > 100 µg/mL | > 100 µg/mL | 284 |  | inactive |  | 
24 | COc1ccc(C(=O)c2cccn2-c2ncccc2C)cc1 [5bo] |  | >1.53 | 224 ± 14.7 µM | 173 ± 60.3 µM | > 342 | >1.98 |  |  | 
25 | Cc1cccnc1-n1cccc1C(=O)c1cccc(OCc2ccccc2)c1 [5bp] |  | >1.31 | 208 ± 23.6 µM | 184 ± 8.67 µM | > 357 | >1.47 |  |  | 
26 | Cc1cccnc1-n1cccc1C(=O)c1ccn(C(C)(C)C)c1 [5bq] |  | >1.56 | 209 ± 4.69 µM | 92.8 ± 7.68 µM | > 325 |  |  |  | 
27 | Cc1cccnc1-n1cccc1C(=O)c1ccn(C)c1 [5br] |  | >1.66 | 227 ± 13.4 µM | > 100 µg/mL | > 377 |  |  |  | 
28 | Cc1cccnc1-n1cccc1C(=O)c1ccoc1 [5bs] |  |  | > 100 µg/mL | > 100 µg/mL | > 396 |  |  |  | 
29 | CN1CCC(c2cc(-c3ccncc3)c(-c3ccc(F)cc3)[nH]2)CC1 [compound 1] | 2.1 |  |  |  |  |  |  |  | 
30 | CN1CCC(c2cc(-c3ccc(F)cc3)c(-c3ccncc3)[nH]2)CC1 [compound 2] | 0.6 |  |  |  |  |  |  |  | 
31 | CCCCCCCCCCCCCCCCOP(=O)([O-])OCC[N+](C)(C)C [miltefosine, reference compound] |  |  | 30.7 ± 8.8 µM | 0.24 ± 0.02 µM | 55.4 ± 4.19 |  |  | 47.6 ± 7.04 | 136 ± 10.2
